Measured values reported in article PMC12090182, “Repurposing of the RIPK1-Selective Benzo[1,4]oxazepin-4-one Scaffold for the Development of a Type III LIMK1/2 Inhibitor” (ACS Chemical Biology, 2025).
pEC50: −log10 of the molar value.

Columns and labels:
[1] = molecular target: MYLK3 (Homo sapiens, UniProt Q32MK0); type: cell-based; conditions: HEK-293T; 1 μM inhibitor, HEK293T cells
Outline: (§1)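 Occupancy is computed for each kinase from filtered luminescence (450 nm donor, 610 nm acceptor). The assay uses HEK293T cells transiently expressing K192 kit constructs for 20 h, exposed to Tracer K10 at kit-recommended levels and to inhibitor at 1 μM.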

[2] = molecular target: PRKAA1 (Homo sapiens, UniProt Q13131); type: cell-based; conditions: HEK-293T; 1 μM inhibitor, HEK293T cells
Chain of PRKAA1 (Q13131 whole entry): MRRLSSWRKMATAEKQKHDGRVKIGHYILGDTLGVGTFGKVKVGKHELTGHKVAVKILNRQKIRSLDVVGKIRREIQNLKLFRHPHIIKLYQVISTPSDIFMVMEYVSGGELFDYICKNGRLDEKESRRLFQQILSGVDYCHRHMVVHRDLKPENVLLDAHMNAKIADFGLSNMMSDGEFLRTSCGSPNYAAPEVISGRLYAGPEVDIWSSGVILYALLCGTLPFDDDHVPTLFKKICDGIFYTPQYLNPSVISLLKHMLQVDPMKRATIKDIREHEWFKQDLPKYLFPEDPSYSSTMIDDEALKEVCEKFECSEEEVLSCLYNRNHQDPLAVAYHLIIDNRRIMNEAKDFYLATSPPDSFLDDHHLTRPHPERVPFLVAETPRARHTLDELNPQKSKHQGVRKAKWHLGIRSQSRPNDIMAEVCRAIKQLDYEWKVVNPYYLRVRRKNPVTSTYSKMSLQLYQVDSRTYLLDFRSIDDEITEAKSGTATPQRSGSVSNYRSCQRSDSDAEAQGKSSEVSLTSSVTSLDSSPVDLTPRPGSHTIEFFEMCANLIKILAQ
Outline: as §1

[3] = molecular target: CDK4 (Homo sapiens, UniProt P11802); type: cell-based; conditions: HEK-293T; 1 μM inhibitor, HEK293T cells
Outline: as §1

[4] = molecular target: MAPK8 (Homo sapiens, UniProt P45983); type: cell-based; conditions: HEK-293T; 1 μM inhibitor, HEK293T cells
Outline: as §1

[5] = molecular target: CSNK2A1 (Homo sapiens, UniProt P68400); type: cell-based; conditions: HEK-293T; 1 μM inhibitor, HEK293T cells
Outline: as §1

[6] = molecular target: JAK3 (Homo sapiens, UniProt P52333); type: cell-based; conditions: HEK-293T; 1 μM inhibitor, HEK293T cells
Outline: as §1

[7] = molecular target: ULK1 (Homo sapiens, UniProt O75385); type: cell-based; conditions: HEK-293T; 1 μM inhibitor, HEK293T cells
Outline: as §1

[8] = molecular target: RPS6KA1 (Homo sapiens, UniProt Q15418); type: cell-based; conditions: HEK-293T; 1 μM inhibitor, HEK293T cells
Chain of RPS6KA1 (Q15418 whole entry): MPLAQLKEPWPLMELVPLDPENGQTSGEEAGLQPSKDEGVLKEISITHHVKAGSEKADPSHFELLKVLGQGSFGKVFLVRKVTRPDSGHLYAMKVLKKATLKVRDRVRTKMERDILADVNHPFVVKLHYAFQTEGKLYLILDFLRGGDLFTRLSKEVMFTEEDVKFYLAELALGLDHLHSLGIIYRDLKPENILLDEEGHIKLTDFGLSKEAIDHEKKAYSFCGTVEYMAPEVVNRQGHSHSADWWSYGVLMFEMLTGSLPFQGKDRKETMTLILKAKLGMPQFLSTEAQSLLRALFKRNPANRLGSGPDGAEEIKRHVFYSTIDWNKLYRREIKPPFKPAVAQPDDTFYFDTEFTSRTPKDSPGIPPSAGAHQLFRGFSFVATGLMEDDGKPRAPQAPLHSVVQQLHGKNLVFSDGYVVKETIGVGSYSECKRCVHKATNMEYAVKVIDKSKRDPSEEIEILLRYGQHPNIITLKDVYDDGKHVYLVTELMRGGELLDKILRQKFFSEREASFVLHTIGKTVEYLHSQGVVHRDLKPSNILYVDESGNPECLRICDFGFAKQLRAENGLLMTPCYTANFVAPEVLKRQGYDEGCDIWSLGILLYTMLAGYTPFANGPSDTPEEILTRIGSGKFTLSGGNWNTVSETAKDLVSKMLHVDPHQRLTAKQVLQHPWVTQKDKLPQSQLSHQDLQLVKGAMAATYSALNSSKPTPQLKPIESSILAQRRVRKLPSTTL
Outline: as §1

[9] = molecular target: CDK18 (Homo sapiens, UniProt Q07002); type: cell-based; conditions: HEK-293T; 1 μM inhibitor, HEK293T cells
Outline: as §1

[10] = molecular target: MAP3K3 (Homo sapiens, UniProt Q99759); type: cell-based; conditions: HEK-293T; 1 μM inhibitor, HEK293T cells
Outline: as §1

[11] = molecular target: CAMK1 (Homo sapiens, UniProt Q14012); type: cell-based; conditions: HEK-293T; 1 μM inhibitor, HEK293T cells
Outline: as §1

[12] = molecular target: TYRO3 (Homo sapiens, UniProt Q06418); type: cell-based; conditions: HEK-293T; 1 μM inhibitor, HEK293T cells
Chain of TYRO3 (Q06418 41-890): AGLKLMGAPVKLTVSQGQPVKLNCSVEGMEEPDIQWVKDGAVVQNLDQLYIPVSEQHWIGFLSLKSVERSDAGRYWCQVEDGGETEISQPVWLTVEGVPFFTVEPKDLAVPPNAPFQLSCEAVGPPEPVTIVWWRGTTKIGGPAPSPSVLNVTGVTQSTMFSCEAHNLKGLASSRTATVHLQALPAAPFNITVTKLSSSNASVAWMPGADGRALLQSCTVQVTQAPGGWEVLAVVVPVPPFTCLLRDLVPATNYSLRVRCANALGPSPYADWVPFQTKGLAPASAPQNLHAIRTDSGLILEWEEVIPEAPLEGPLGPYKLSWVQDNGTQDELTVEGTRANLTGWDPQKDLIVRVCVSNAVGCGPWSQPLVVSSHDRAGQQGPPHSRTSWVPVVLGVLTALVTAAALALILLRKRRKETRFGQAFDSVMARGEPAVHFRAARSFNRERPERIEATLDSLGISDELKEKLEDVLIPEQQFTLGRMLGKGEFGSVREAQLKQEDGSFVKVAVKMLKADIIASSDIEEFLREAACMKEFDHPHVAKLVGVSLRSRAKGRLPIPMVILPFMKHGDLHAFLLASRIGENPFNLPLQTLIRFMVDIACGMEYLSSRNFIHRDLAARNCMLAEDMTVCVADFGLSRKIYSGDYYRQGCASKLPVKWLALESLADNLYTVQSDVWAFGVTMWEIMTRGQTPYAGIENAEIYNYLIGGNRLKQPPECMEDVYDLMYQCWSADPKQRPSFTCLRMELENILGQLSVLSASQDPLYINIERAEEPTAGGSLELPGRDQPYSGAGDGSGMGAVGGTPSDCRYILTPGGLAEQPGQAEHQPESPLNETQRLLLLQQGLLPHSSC
Outline: as §1

[13] = molecular target: STK11 (Homo sapiens, UniProt Q15831); type: cell-based; conditions: HEK-293T; 1 μM inhibitor, HEK293T cells
Outline: as §1

[14] = molecular target: EPHA6 (Homo sapiens, UniProt Q9UF33); type: cell-based; conditions: HEK-293T; 1 μM inhibitor, HEK293T cells
Outline: as §1

[15] = molecular target: GAK (Homo sapiens, UniProt O14976); type: cell-based; conditions: HEK-293T; 1 μM inhibitor, HEK293T cells
Outline: as §1

[16] = molecular target: AURKA (Homo sapiens, UniProt O14965); type: cell-based; conditions: HEK-293T; 1 μM inhibitor, HEK293T cells
Chain of AURKA (O14965 whole entry): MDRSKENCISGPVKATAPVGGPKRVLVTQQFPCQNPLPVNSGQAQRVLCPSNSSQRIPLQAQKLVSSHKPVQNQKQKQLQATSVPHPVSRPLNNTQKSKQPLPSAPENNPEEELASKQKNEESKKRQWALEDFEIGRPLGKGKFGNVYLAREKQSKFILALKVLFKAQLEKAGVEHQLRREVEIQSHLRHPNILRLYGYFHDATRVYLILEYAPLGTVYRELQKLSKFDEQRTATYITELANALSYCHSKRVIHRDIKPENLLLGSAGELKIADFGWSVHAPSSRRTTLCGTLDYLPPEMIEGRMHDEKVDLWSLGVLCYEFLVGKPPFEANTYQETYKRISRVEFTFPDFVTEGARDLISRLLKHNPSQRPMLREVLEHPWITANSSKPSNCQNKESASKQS
Outline: as §1

[17] = molecular target: INSR (Homo sapiens, UniProt P06213); type: cell-based; conditions: HEK-293T; 1 μM inhibitor, HEK293T cells
Outline: as §1

[18] = molecular target: TNNI3K (Homo sapiens, UniProt Q59H18); type: cell-based; conditions: HEK-293T; 1 μM inhibitor, HEK293T cells
Outline: as §1

[19] = molecular target: PRKAA2 (Homo sapiens, UniProt P54646); type: cell-based; conditions: HEK-293T; 1 μM inhibitor, HEK293T cells
Outline: as §1

[20] = molecular target: PLK3 (Homo sapiens, UniProt Q9H4B4); type: cell-based; conditions: HEK-293T; 1 μM inhibitor, HEK293T cells
Chain of PLK3 (Q9H4B4 whole entry): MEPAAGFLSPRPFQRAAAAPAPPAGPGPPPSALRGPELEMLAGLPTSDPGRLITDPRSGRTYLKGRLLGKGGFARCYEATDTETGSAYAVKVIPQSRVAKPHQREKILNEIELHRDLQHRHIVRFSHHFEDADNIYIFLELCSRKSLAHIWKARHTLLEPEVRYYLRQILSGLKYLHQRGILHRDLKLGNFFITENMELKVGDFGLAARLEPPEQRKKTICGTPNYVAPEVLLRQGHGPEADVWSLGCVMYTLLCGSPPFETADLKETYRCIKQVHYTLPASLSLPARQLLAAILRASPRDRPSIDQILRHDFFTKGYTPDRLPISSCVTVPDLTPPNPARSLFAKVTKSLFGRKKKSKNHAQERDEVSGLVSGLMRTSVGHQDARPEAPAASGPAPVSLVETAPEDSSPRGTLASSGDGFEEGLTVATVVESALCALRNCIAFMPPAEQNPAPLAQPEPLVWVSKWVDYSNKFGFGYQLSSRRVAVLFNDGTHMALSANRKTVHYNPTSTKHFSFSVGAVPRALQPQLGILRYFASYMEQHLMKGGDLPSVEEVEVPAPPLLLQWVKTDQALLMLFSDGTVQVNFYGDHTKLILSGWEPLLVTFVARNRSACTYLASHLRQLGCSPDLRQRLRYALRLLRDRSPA
Outline: as §1

[21] = molecular target: FGFR2 (Homo sapiens, UniProt P21802); type: cell-based; conditions: HEK-293T; 1 μM inhibitor, HEK293T cells
Outline: as §1

[22] = molecular target: ABL1(H396P)-phosphorylated (Homo sapiens, UniProt P00519, H396P); assay: biochemical; type: binding; conditions: read-out: Percent Control
[23] = molecular target: LRRK2 (Homo sapiens, UniProt Q5S007); assay: NanoBRET cellular target engagement; type: cell-based; conditions: LRRK2, HEK293T cells; read-out: EC50 (NanoBRET), Figure 4C
Method: (§2) The assay was performed as described previously.[31],[32] In brief, full-length LIMK1/2, RIPK1, BTK, and LRRK2 cloned in a frame in a NanoLuc-vector (Promega) were transfected into HEK293T cells (ATCC CRL-1573) using FuGENE HD (Promega, E2312), and proteins were allowed to express for 20 h. The serially diluted inhibitor and NanoBRET Kinase Tracer (Promega) used at the previously determined Tracer KD,app (Table S1) were pipetted into white 384-well plates (Greiner 781 207) using an ECHO 550 acoustic dispenser (Labcyte). The corresponding transfected cells were added and reseeded at a density of 2 × 10^5 cells/mL after trypsinization and resuspension in Opti-MEM without phenol red (Life Technologies). The system was allowed to equilibrate for 2 h at 37 °C and 5% CO2 prior to BRET measurements. To measure BRET, a NanoBRET Nano-Glo substrate and an extracellular NanoLuc inhibitor (Promega, N2160) were added as per the manufacturer's protocol, and filtered luminescence was measured on a PHERAstar plate reader (BMG Labtech) equipped with a luminescence filter pair (a 450 nm BP filter (donor) and a 610 nm LP filter (acceptor)). Competitive displacement data were then plotted using GraphPad Prism 10 software using a normalized three-parameter curve fit with the following equation: Y = 100/( [drawing 1] ).

[24] = molecular target: T1, BTK (Homo sapiens, UniProt Q06187); assay: NanoBRET cellular target engagement; type: cell-based; conditions: HEK293T cells, read-out: EC50 (NanoBRET), Figure 4C
T1 construct: full-length LIMK1/2, RIPK1, BTK, and LRRK2 cloned in a frame in a NanoLuc-vector (Promega); host or cells: HEK293T
T1 sequence (Q06187 whole entry): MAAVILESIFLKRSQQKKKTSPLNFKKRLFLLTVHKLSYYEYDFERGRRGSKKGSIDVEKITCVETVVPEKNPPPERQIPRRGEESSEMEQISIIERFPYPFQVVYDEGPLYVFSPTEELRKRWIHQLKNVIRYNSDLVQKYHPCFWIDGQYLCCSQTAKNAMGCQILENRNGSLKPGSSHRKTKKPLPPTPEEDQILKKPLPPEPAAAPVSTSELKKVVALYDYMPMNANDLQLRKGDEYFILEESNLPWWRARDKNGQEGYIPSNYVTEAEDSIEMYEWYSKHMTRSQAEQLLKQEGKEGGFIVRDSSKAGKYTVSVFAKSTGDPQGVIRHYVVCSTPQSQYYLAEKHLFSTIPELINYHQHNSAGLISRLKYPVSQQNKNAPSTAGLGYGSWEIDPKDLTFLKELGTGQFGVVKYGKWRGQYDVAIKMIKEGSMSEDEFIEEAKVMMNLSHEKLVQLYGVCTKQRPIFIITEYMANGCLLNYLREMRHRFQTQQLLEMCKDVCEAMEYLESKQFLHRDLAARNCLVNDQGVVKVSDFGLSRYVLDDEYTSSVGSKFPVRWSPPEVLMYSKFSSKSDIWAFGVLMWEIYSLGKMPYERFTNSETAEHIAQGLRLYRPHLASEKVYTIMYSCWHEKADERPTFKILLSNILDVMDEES
Method: as §2

[25] = molecular target: EGFR(T790M) (Homo sapiens, UniProt P00533, T790M); assay: biochemical; type: binding; conditions: 1000 nM, read-out: Percent Control
Chain of EGFR(T790M) (P00533 25-1210 T790M): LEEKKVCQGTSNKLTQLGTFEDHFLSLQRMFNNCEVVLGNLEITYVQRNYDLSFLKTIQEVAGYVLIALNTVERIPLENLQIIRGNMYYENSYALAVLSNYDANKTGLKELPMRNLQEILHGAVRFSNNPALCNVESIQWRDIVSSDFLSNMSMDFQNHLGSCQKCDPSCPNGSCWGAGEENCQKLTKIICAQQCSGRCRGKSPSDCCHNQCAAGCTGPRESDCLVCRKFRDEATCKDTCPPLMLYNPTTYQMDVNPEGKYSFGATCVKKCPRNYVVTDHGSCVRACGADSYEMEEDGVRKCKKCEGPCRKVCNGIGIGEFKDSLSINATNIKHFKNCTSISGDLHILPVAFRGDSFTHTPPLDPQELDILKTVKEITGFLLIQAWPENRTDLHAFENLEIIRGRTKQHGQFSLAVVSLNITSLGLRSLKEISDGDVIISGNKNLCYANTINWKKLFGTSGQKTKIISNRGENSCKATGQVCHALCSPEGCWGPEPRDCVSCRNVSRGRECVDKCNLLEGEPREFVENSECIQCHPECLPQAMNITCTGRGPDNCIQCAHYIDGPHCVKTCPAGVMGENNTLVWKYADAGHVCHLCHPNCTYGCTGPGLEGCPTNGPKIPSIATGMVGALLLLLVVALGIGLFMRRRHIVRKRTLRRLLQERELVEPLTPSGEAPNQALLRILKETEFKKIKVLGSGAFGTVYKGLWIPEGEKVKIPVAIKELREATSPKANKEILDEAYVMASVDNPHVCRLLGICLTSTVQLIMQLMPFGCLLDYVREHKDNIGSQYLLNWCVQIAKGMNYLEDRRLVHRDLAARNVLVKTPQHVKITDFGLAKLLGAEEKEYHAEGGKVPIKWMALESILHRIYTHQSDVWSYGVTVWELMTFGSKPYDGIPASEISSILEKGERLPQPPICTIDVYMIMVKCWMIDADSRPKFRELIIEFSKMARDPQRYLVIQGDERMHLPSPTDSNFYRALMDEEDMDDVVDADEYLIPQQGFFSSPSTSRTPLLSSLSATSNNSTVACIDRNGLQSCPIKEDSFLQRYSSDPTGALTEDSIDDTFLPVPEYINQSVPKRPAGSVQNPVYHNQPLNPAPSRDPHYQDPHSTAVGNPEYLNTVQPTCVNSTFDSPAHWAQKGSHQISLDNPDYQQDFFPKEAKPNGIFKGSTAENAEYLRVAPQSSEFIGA

[26] = molecular target: FLT3(R834Q) (Homo sapiens, UniProt P36888, R834Q); assay: biochemical; type: binding; conditions: 1000 nM, read-out: Percent Control

Q: With `CN1C(=O)[C@@H](N2CCc3c(nn(Cc4ccccc4)c3C(N)=O)C2=O)COc2cc(Cl)ccc21` [Compound 10, (S)-2-benzyl-6-(8-chloro-5-methyl-4-oxo-2,3,4,5-tetrahydrobenzo[b][1,4]oxazepin-3-yl)-7-oxo-4,5,6,7-tetrahydro-2H-pyrazolo[3,4-c]pyridine-3-carboxamide] as the compound, how does the receptor occupancy at 1 µM [1] read?
A: 3.25%

Q: What about the receptor occupancy at 1 µM [2] of the same compound?
A: -3.79%

Q: What about the receptor occupancy at 1 µM [3] of the same compound?
A: -9.98%

Q: And the receptor occupancy at 1 µM [4]?
A: -11.5%

Q: What about the receptor occupancy at 1 µM [5] of the same compound?
A: 3.96%

Q: And the receptor occupancy at 1 µM [6]?
A: 4.78%

Q: And the receptor occupancy at 1 µM [7]?
A: 4.3%

Q: And the receptor occupancy at 1 µM [8]?
A: 5.2%

Q: And the receptor occupancy at 1 µM [9]?
A: -5.62%

Q: What about the receptor occupancy at 1 µM [10] of the same compound?
A: 5.83%

Q: And the receptor occupancy at 1 µM [11]?
A: 2.97%

Q: What about the receptor occupancy at 1 µM [12] of the same compound?
A: -9.33%

Q: What about the receptor occupancy at 1 µM [13] of the same compound?
A: -4.45%

Q: And the receptor occupancy at 1 µM [14]?
A: -0.834%

Q: And the receptor occupancy at 1 µM [15]?
A: 0.954%

Q: What about the receptor occupancy at 1 µM [16] of the same compound?
A: -7.12%

Q: What about the receptor occupancy at 1 µM [17] of the same compound?
A: 4.94%

Q: And the receptor occupancy at 1 µM [18]?
A: -0.0649%

Q: And the receptor occupancy at 1 µM [19]?
A: 2.71%

Q: What about the receptor occupancy at 1 µM [20] of the same compound?
A: 2.41%

Q: What about the receptor occupancy at 1 µM [21] of the same compound?
A: -6.21%

Q: And the remaining activity at 1 µM [22]?
A: 88%

Q: And the pEC50 [23]?
A: < 4.30

Q: What about the pEC50 [24] of the same compound?
A: < 4.30

Q: What about the remaining activity at 1 µM [25] of the same compound?
A: 100%

Q: What about the remaining activity at 1 µM [26] of the same compound?
A: 92%
